We go through six compounds from publication PMC8623273, “Novel N7-Arylmethyl Substituted Dinucleotide mRNA 5′ cap Analogs: Synthesis and Evaluation as Modulators of Translation” (Pharmaceutics, 2021).

Series [1] concerns the target eukaryotic translation initiation factor 4E (eIF4E) (Mus musculus, UniProt P63073). Briefly: pyrene-probe fluorescent competitive-binding assay (PyFLINT-B) for cap analog-eIF4E. The conditions noted are these: for effect of the N7 substituent on eIF4E binding (in words): compared to m^7GpppG / 1a or unmodified counterpart; for Kd: pyrene-based high-throughput competition assay, 30 °C, KD calculated from EC50, read-out: KD Cap-eIF4E ± SD; for EC50: Table S2. The source says:
High affinity for eIF4E is a desirable feature of cap analogs designed for modulating translation, either as small molecules or as a part of mRNA. Thus, we studied how different substituents at the N7-position affected eIF4E-cap interaction. To this end, we first determined the affinity of m^7GpppG and Bn^7GpppG (1a) using time-synchronized fluorescence quenching titration, a very precise and well-established, but low-throughput method. Next, to evaluate the whole set of the synthesized compounds (1a–1r), we used a high-throughput competitive-binding assay based on a pyrene-labeled fluorescent probe. From this assay we determined relative affinities of the compounds represented by half-effective concentrations (EC50) (Figure 3A–C), which were then used to calculate dissociation constant (KD) values for cap analog–eIF4E complexes using previously reported equations (Table 2, Figure 3D).
To determine the dissociation constants of the library of N7-benzylated dinucleotide 5′ cap analogs for translation initiation factor 4E, a fluorescent competitive-binding assay (PyFLINT-B) was applied as previously described. The experiments were performed on a Synergy™ H1 plate reader in 96-well, black, non-binding assay plates. Each well contained an appropriate buffer (50 mM Hepes/KOH pH 7.2, 100 mM KCl and 0.5 mM EDTA), pyrene probe m^7Gp5C4Py (10 nM), substrate (in half-logarithmic dilutions from 850 μM to 0.03 μM for compound 1m and from 100 μM to 0.003 μM for m^7GpppG and the rest of the compounds) and protein eIF4E (75 nM). The m^7Gp5C4Py was synthesized as describer earlier. The pyrene probe was dissolved in water and concentration was determined spectrometrically at 345 nm using the extinction coefficient (21,000 M^−1 cm^−1). The eIF4E protein was centrifuged after defrosting (5 min, 4 °C, 10k rcf) and its concentration was determined spectrometrically at 280 nm using the extinction coefficient (52,940 M^−1 cm^−1). The reaction mixtures were preincubated (15 min, 300 rpm, 30 °C). All measurements were performed at 30 °C and the fluorescence detection at 345 nm excitation and 378 nm emission was recorded.
To determine EC50 values, GraphPad Prism 9.1.2 software was used. To fit the curves to the obtained data we used the following formula:(1) Y=Bottom+ Top−Bottom/1+ X/EC50 where: X, cap analog (ligand) concentration; EC50, concentration of the cap analog resulting in half-maximal response from the fluorescent probe–protein complex; Bottom, minimal signal from the negative control, which contains only the free probe; Top, maximal signal from the positive control, the mixture of the protein and the fluorescent probe.
The dissociation constants KD were then calculated using the equation described by Nikolovska-Coleska et al.:(2) KD=EC50−Pt+PL50KD_probe/L50+1/L50/KD_probe+P0/KD_probe+1 where: EC50, concentration of the cap analog resulting in half-maximal response from the fluorescent probe–protein complex; [Pt], total protein concentration; [PL]50, concentration of the probe–protein complex at 50% inhibition; KD_probe, dissociation constant of the complex between the fluorescent probe and the protein; [L]50, probe concentration at 50% inhibition; [P]0, free protein concentration at 0% inhibition.

For the next series, the target named is eIF4E (Mus musculus, UniProt P63073). Nature of the series: fluorescence anisotropy (FA) competition assay with eIF4E. The conditions noted are these: Table S2; for EC50: 25 °C, probe m^7GTP-triazol-FAM 10 nM, eIF4E 100 nM; for Kd: calculated from EC50. The series is classed as binding. The source says:
The KD values determined from the high-throughput assay were in qualitative agreement with data from time-synchronized fluorescence quenching titration, justifying the use of the former for evaluation of the whole set of caps. […] To additionally verify the binding affinity data (especially for 1q and 1r, as mentioned above), we determined the binding affinities for all analogs using another independent assay, based on fluorescence anisotropy. The KD data determined by this method correlated very well with the results reported above (Table S2, Figure S2).
Fractions of the compounds were independently tested using a different method based on fluorescence anisotropy (FA). These experiments were performed on a Synergy™ H1 plate reader in 96-well, black, non-binding assay plates. Each well contained appropriate buffer (50 mM HEPES/KOH pH 7.2, 100 mM KCl, 0.5 mM EDTA i 1 mM DTT), the fluorescent probe m^7GTP-triazol-FAM (10 nM), substrate (in a 2.08-fold dilution, starting from 60 μM) and protein eIF4E (100 nM). The m^7GTP-triazol-FAM was synthesized as describer earlier. All measurements were performed at 25 °C. Determined EC50 values were means ± SD of three independent experiments. The dissociation constants KD were then calculated using the equation described by Nikolovska-Coleska as described earlier.

In the next series the target is T1, hDcpS (Homo sapiens, UniProt Q96C86).
T1 sequence (Q96C86 1-337): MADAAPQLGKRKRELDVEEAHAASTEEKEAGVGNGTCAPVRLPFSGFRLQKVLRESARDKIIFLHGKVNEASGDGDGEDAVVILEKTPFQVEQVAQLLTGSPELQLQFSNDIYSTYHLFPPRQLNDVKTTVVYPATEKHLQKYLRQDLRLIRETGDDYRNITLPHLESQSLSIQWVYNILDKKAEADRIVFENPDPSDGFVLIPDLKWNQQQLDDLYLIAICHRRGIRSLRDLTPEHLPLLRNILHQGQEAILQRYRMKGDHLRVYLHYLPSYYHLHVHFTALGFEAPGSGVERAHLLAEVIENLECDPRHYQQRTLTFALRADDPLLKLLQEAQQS
The series is classed as in vitro ADME. The conditions noted are these: 100 μM compound, 20 nM hDcpS; for hDcpS Assay: fraction of the cap remaining after 1 h incubation with DcpS: 37 °C. The procedure: Susceptibility to decapping scavenger (DcpS) is one of the factors that could potentially influence the cellular stability of mono- and dinucleotide cap analogs designed as translational inhibitors. Therefore, we studied the susceptibility of arylmethyl-modified dinucleotides to DcpS. The compounds (at 100 μM concentration each) were incubated with 20 nM of hDcpS, and the hydrolysis progress at different time points was analyzed via RP HPLC and compared to m^7GpppG (Figure 4 and Figure S3).
The enzymatic activity of DcpS was assayed at 37 °C in 50 mM Tris∙HCl, pH 7.6 containing 200 mM KCl, 0.5 mM EDTA. DcpS cleavage assays were carried out with 100 μM of the tested compound and 20 nM (monomer) of the hDcpS. Enzymatic reaction progress was examined after 30, 60 and 180 min. As a control, a sample was examined before adding enzyme. Aliquots of 15 μL were terminated by heat inactivation of the enzyme for 3 min at 98 °C. The samples were analyzed via RP HPLC equipped with a Supelcosil LC-18-T column (4.6 × 250 mm, 5 μm, flow rate 1.3 mL/min).

Series [2] relates to cap-dependent translation in rabbit reticulocyte lysate (RRL). Nature of the series: inhibition of cap-dependent translation in rabbit reticulocyte lysate (RRL). The series is classed as biochemical. The conditions noted are these: RRL, cap analog and mRNA added at the same time (no pre-incubation), 60 min, 30 °C; read-out: Translation Inhibition IC50. The protocol: After determining the affinity for eIF4E and susceptibility to DcpS, we evaluated the analogs as inhibitors of protein translation in rabbit reticulocyte lysates (RRL). To enable better assessment of how these two factors influenced inhibitory properties, we performed two sets of experiments. In the first set, cap analogs were added to RRL along with luciferase-encoding reporter mRNA followed by a protein activity (luminescence) readout after 1 h, whereas in the second set cap analogs were additionally preincubated in RRL for 1 h prior to addition of mRNA. Based on previously reported findings, we expected that in the second experimental setup, cap analogs susceptible to DcpS would lose their inhibitory potency, whereas compounds resistant to DcpS would remain similarly active.
The ability of the N7-benzyl cap analogues to inhibit cap-dependent translation was assayed in a rabbit reticulocyte lysate (RRL) system. Two sets of experiments were performed. In both variants, in vitro translation reactions (10 μL total volume) contained a tested cap analog (inhibitor) and an in vitro transcribed, ARCA-capped mRNA encoding Gaussia luciferase at 1 μg/mL final concentration. In experimental variant A, cap analogues at concentrations in the range of 0 to 64 μM and mRNA were added to the reaction mixture at the same time. Reactions were incubated at 30 °C for 60 min and then stopped by freezing in liquid nitrogen. In experimental variant B, the cap analogues were added at concentrations in the range of 0 to 160 μM. Reactions were pre-incubated at 30 °C for 60 min prior to addition of mRNA; after addition of mRNA incubation was continuous at 30 °C for 60 min and then stopped by freezing in liquid nitrogen. To detect luminescence from Gaussia luciferase, 50 μL of 10 ng/mL h-coelenterazine (NanoLight, Norman, OK, USA) in PBS was added to 10 μL of RRL and the luminescence was measured with a Synergy H1 (BioTek, Winooski, VT, USA) microplate reader.

eukaryotic translation initiation factor 4E (eIF4E), sequence (P63073 whole entry): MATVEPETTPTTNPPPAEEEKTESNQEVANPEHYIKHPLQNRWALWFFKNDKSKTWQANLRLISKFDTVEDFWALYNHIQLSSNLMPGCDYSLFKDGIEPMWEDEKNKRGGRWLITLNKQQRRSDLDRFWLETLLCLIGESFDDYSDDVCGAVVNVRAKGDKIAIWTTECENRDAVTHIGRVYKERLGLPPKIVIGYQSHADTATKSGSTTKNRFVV
eIF4E, sequence (P63073 whole entry): as above

As for `Cc1ccccc1C[n+]1cn([C@@H]2O[C@H](COP(=O)(O)OP(=O)([O-])OP(=O)(O)OC[C@H]3O[C@@H](n4cnc5c(=O)[nH]c(N)nc54)[C@H](O)[C@@H]3O)[C@@H](O)[C@H]2O)c2nc(N)nc(O)c21` [1b, 2-MeBn^7GpppG], in series [1], the “effect of the N7 substituent on eIF4E binding (in words)” value (“effect of the N7 substituent” for short) is on record as “decreased the binding affinity by eight-fold” and the Kd – broadly, the equilibrium constant for the complex coming apart – is 1910 ± 360 nM. Besides, at eIF4E, the EC50 (commonly the concentration needed to bring the measured effect to its halfway point) was found to be 3100 ± 100 nM and the Kd is 1120 nM. At hDcpS, the “susceptibility to hDcpS (in words)” value is recorded as “very slowly hydrolyzed” and the “hDcpS Assay: fraction of the cap remaining after 1 h incubation with DcpS” value turned out to be 0.88. Further, the IC50 (usually the concentration needed to halve the response being measured) in series [2] came out at 154000 ± 88000 nM.
On to `Cc1ccc(C[n+]2cn([C@@H]3O[C@H](COP(=O)(O)OP(=O)([O-])OP(=O)(O)OC[C@H]4O[C@@H](n5cnc6c(=O)[nH]c(N)nc65)[C@H](O)[C@@H]4O)[C@@H](O)[C@H]3O)c3nc(N)nc(O)c32)cc1` [1d, 4-MeBn^7GpppG], for which, in series [1], the 50% effective concentration (EC50) is 5600 nM and the Kd was 482 ± 81 nM. Also, on eIF4E, the EC50 worked out at 860 ± 30 nM and the Kd was 295 ± 13 nM. For the same compound, at hDcpS, the “susceptibility to hDcpS (in words)” value is “almost as good a substrate as Bn^7GpppG” and the “hDcpS Assay: fraction of the cap remaining after 1 h incubation with DcpS” value came to 0.53. Besides, the IC50 in series [2] amounted to 16900 ± 3500 nM.
In the case of `Cc1cc(C)cc(C[n+]2cn([C@@H]3O[C@H](COP(=O)(O)OP(=O)([O-])OP(=O)(O)OC[C@H]4O[C@@H](n5cnc6c(=O)[nH]c(N)nc65)[C@H](O)[C@@H]4O)[C@@H](O)[C@H]3O)c3nc(N)nc(O)c32)c1` [1f, 3,5-di-MeBn^7GpppG], in series [1], the 50% effective concentration (EC50) was 7500 nM and the Kd was 646 ± 114 nM. In addition, at eIF4E, the EC50 is 1100 ± 100 nM and the Kd is 384 ± 41 nM. On hDcpS, the “susceptibility to hDcpS (in words)” value is “Lower susceptibility to hydrolysis” and the “hDcpS Assay: fraction of the cap remaining after 1 h incubation with DcpS” value is 0.95. In addition, the half-maximal inhibitory concentration (IC50) in series [2] was determined as 13200 ± 2000 nM.
Consider `Nc1nc(O)c2c(n1)n([C@@H]1O[C@H](COP(=O)(O)OP(=O)([O-])OP(=O)(O)OC[C@H]3O[C@@H](n4cnc5c(=O)[nH]c(N)nc54)[C@H](O)[C@@H]3O)[C@@H](O)[C@H]1O)c[n+]2Cc1ccc(C(=O)O)cc1` [1m, 4-COOH-Bn^7GpppG], for which, in series [1], the “effect of the N7 substituent” value is on record as “completely disrupted the binding” and the Kd is above 50000 nM. At hDcpS, the “susceptibility to hDcpS (in words)” value is on record as “Lower susceptibility to hydrolysis” and the “hDcpS Assay: fraction of the cap remaining after 1 h incubation with DcpS” value was determined as 0.93. In addition, the 50% inhibitory concentration (IC50) in series [2] was above 500000 nM.
As for `Nc1nc(O)c2c(n1)n([C@@H]1O[C@H](COP(=O)(O)OP(=O)([O-])OP(=O)(O)OC[C@H]3O[C@@H](n4cnc5c(=O)[nH]c(N)nc54)[C@H](O)[C@@H]3O)[C@@H](O)[C@H]1O)c[n+]2Cc1cccc2ccccc12` [1o, α-Naphm^7GpppG], in series [1], the EC50 came to 35000 nM, the “effect of the N7 substituent” value was “disrupted the binding to a similar extent as 2-methylbenzyl” and the Kd is 3040 ± 490 nM. Moreover, on eIF4E, the 50% effective concentration (EC50) is 2100 ± 100 nM and the dissociation constant (Kd) is 739 ± 49 nM. Moreover, at hDcpS, the “susceptibility to hDcpS (in words)” value was “lower susceptibility to hDcpS than m^7GpppG” and the “hDcpS Assay: fraction of the cap remaining after 1 h incubation with DcpS” value was determined as 0.97.
With `Nc1nc(O)c2c(n1)n([C@@H]1O[C@H](COP(=O)(O)OP(=O)([O-])OP(=O)(O)OC[C@H]3O[C@@H](n4cnc5c(=O)[nH]c(N)nc54)[C@H](O)[C@@H]3O)[C@@H](O)[C@H]1O)c[n+]2Cc1ccc2ccccc2c1` [1p, β-Naphm^7GpppG], in series [1], the EC50 is 12000 ± 600 nM, the “effect of the N7 substituent” value is recorded as “disrupted the binding to a similar extent as 2-methylbenzyl” and the Kd was 1060 ± 190 nM. On hDcpS, the “susceptibility to hDcpS (in words)” value is “lower susceptibility to hDcpS than m^7GpppG” and the “hDcpS Assay: fraction of the cap remaining after 1 h incubation with DcpS” value is 0.84. In series [2], the IC50 came out at 15900 ± 3400 nM.
